In publication PMC7560154, “Novel Antimicrobial Peptide from Temporin L in The Treatment of Staphylococcus pseudintermedius and Malassezia pachydermatis in Polymicrobial Inter-Kingdom Infection” (Antibiotics, 2020):
Values after ≈ are worked out from the molar mass of the structure shown. Where a SMILES comes first, the peptide text is derived from it. [ ]: non-standard residue; d: D form.

Key:
circulating blood cells = conditions: cited from earlier work
MRSP biofilm formation = experiment: Biofilm formation, crystal violet assay, MRSP; type: cell-based, Staphylococcus pseudintermedius; conditions: sub-MIC 0.095 to 0.78 μM, 24 h
Experimental: (§1) Anti-biofilm activity of peptide 8 was examined by the crystal violet assay previously described with minor modifications. Microtiter plates were inoculated with bacteria at a final density of 10^6 CFU/mL and treated with peptide 8 ranging from 0.095 to 0.78 μM. Control cells were grown in the absence of peptide 8. After 24 h incubation at 37 °C, the supernatant was gently removed, and the wells were rinsed twice with PBS. The amount of biofilm formed in the wells was measured by crystal violet staining and the absorbance of the solution was measured at 595 nm.

[1] = tested on: methicillin-susceptible S. pseudintermedius (MSSP); experiment: microbe, parasite or virus in culture; type: cell-based, Staphylococcus pseudintermedius
Experimental: (§2) MIC of all compounds was determined in Sabouraud Dextrose broth with 1% tween 80 (SB) medium, for M. pachydermatis, and Mueller–Hinton broth (MH), for S. pseudintermedius, by the broth microdilution assay (BMD) in 96-well microtiter plates, as previously reported. Specifically, SB containing 1% Tween 80 was used instead of RPMI 1640 medium. All compounds were dissolved in ethanol and ketoconazole in dimethyl sulfoxide (DMSO). The solutions were serially diluted in SB and MH two-fold from 0.19 to 50 μM. M. pachydermatis suspension was prepared from 3-day-old colonies grown on Sabouraud agar at 30 °C. The final concentration of the yeast inoculum suspensions was equivalent to 1–3 × 10^3 CFU/mL. Bacterial suspensions were diluted to yield an optical density (OD) around 0.5 at 595 nm and further diluted to a final concentration of 1 × 10^6 CFU/mL. The compounds were added to the microbial suspension in each well yielding a final cell concentration of 5 × 10^5 CFU/mL. Positive controls included oxacillin 5 μM (2 μg/mL) and vancomycin 1.4 μM (2 μg/mL) for S. pseudintermedius or ketoconazole 0.2 μM (0.125 μg/mL) for M. pachydermatis. Negative control wells were set to contain bacteria in MH or yeasts in SB plus the amount of ethanol used to dilute each compound. Medium turbidity was measured by a microtiter plate reader (Tecan, Milan, Italy) at 595 nm after 24 h for S. pseudintermedius and 48 h for M. pachydermatis. Absorbance was proportional to microbial growth. The MIC was defined as the lowest concentration of drug that caused a prominent decrease (≥90% inhibition) in visible growth relative to that of the growth control.

[2] = tested on: methicillin-resistant S. pseudintermedius (MRSP); experiment: microbe, parasite or virus in culture; type: cell-based, Staphylococcus pseudintermedius
Experimental: as §2

[3] = tested on: methicillin-susceptible S. pseudintermedius (MSSP); experiment: Time-kill assay, MSSP; type: cell-based, Staphylococcus pseudintermedius
Experimental: (§3) Time kill assay was carried out as previously described. […] Plates were incubated at 37 °C on an orbital shaker at 120 rpm. Viability assessments were performed at 0, 2, 4, 6 and 24 h by plating 0.01 mL undiluted and 10-fold serially diluted samples onto Mueller–Hinton plates in triplicate. After overnight incubation at 37 °C, bacterial colonies were counted and compared with counts from control cultures.

MSSP mature biofilm = experiment: Mature biofilm metabolic activity, XTT assay, MSSP; type: cell-based, Staphylococcus pseudintermedius; conditions: 24 h
Experimental: The metabolic activity of MSSP and MRSP mature biofilms was quantified by the XTT [2,3-bis(2-methyloxy-4-nitro-5-sulfophenyl)-2H-tetrazolium-5-carboxanilide] (Roche Diagnostics, Germany) reduction assay. The assay was conducted as previously described with some modifications. XTT (150 µL) was added to biofilms in each well and the plates were incubated for 40 min at 37 °C in the dark. The reduction of the tetrazolium salt by cellular dehydrogenase into orange formazan dye was photometrically measured at 490 nm. The medium was set as negative control. Viability values for each well were compared to controls.

MRSP mature biofilm = experiment: Mature biofilm biomass, crystal violet assay, MRSP; type: cell-based, Staphylococcus pseudintermedius; conditions: MRSP one-day-old biofilm, up to 25 μM, 24 h
Experimental: Biofilms were allowed to form in each well of a 96-well microtiter plate, as described by Stepanovic. After 24 h, planktonic cells were aspirated, and the plates were washed with 200 μL of PBS. Cells biofilms were exposed to 200 μL of peptide 8 at the final concentration ranging from 6.25 to 25 μM and the plate was further incubated for 24 h at 37 °C. Positive controls were non-treated cells incubated with 200 μL of medium broth. At the end of the experiment crystal violet-staining was performed to assess biofilm mass.

[4] = in vivo model of acute inflammation; cited from earlier work
mecA gene expression = mecA gene expression by RT-PCR; type: cell-based, Staphylococcus pseudintermedius
Experimental: The reaction was carried out in a DNA thermal cycler (MyCycler, Bio-Rad, Hercules, CA, USA). The PCR products were analysed by electrophoresis on 1.8% agarose gel in TBE and analysed on a Gel Doc EZ System (Bio-Rad, Hercules, CA, USA). RNA extraction was performed by using GenUp Total RNA kit (BiotechRabbit, Berlin, Germany) according to the manufacturer’s instructions. Five hundred nanograms of total cellular RNA were reverse-transcribed (RevertUP II Reverse Transcriptase, BiotechRabbit, Berlin, Germany) into cDNA using random hexamer primers (Random hexamer, Roche Diagnostics, Mannheim, Germany) at 48 °C for 60 min according to the manufacturer’s instructions. RT-PCR was carried out using 2 μL of cDNA, as reported above. Quantification data were normalized to the reference gene for 16S rRNA gene and analyzed by Image Lab software 5.2.1 (Bio-Rad, Hercules, CA, USA).

[5] = ref unpublished results, cited from earlier work
MSSP biofilm formation = experiment: Biofilm formation, crystal violet assay, MSSP; type: cell-based, Staphylococcus pseudintermedius; conditions: sub-MIC 0.095 to 0.78 μM, 24 h
Experimental: as §1

MRSP = experiment: Time-kill assay, MRSP; type: cell-based, Staphylococcus pseudintermedius
Experimental: as §3

For `CC[C@H](C)[C@H](NC(=O)[C@H](CCCNC(=N)N)NC(=O)[C@@H](CCCCN)NC(=O)[C@@H](CC(C)C)NC(=O)[C@H](Cc1ccccc1)NC(=O)[C@H](CCCCN)NC(=O)[C@H](CO)NC(=O)[C@H](Cc1ccccc1)NC(=O)[C@H](Cc1c[nH]c2ccccc12)NC(=O)[C@@H]1CCCN1C(=O)[C@@H](NC(=O)[C@@H](N)Cc1ccccc1)C(C)C)C(=O)N[C@@H](CC(C)C)C(N)=O` [Peptide 8] (H-FVPWFSKF[dL][dK]RIL-NH2; N-terminus assumed), the Hemolytic activity (circulating blood cells) is given as “did not show hemolytic activity”, the “Effect on biofilm formation” value (MRSP biofilm formation) is given as “ineffective” and the MBC ([1]; 24 h) is given as 3.12 µM (≈ 5.24 µg/mL). The MIC ([1]; 24 h, read-out: MIC) was 1.56 µM (≈ 2.62 µg/mL), the “MBC/MIC Ratio” value ([1]; MSSP) was 2 and the MBC ([2]; 24 h) was 12.5 µM (≈ 21 µg/mL). The MIC ([2]; 24 h, read-out: MIC) was 6.25 µM (≈ 10.5 µg/mL), the “MBC/MIC Ratio” value ([2]; MRSP) was 2 and the “Log10CFU/mL 0 h” value ([3]; peptide at MIC value, 37 °C, 0 h, three independent experiments in triplicate) was 5.45 ± 0.25 Log10CFU/mL. For the same molecule, the “Log10CFU/mL 1 h” value ([3]; peptide at MIC value, 1 h) was 0.60 ± 0.12 Log10CFU/mL, the “Log10CFU/mL 2 h” value ([3]; peptide at MIC value, 2 h) was 0.58 ± 0.32 Log10CFU/mL and the “Log10CFU/mL 4 h” value ([3]; peptide at MIC value, 4 h) was 0.89 ± 0.15 Log10CFU/mL. The “Log10CFU/mL 6 h” value ([3]; peptide at MIC value, 6 h) was 0.46 ± 0.15 Log10CFU/mL, the “Log10CFU/mL 24 h” value ([3]; peptide at MIC value, 24 h) was 4.97 ± 0.30 Log10CFU/mL and the “Bactericidal or bacteriostatic activity” value ([3]; time-kill at MIC value) was “bacteriostatic”. The “Reduction of biofilm viability” value (MSSP mature biofilm; 12.5 μM) was 38%, the “Effect on biofilm viability at 25 μM” value (MSSP mature biofilm; 25 μM) was “reduced effect” and the “Effect on mature biofilm biomass” value (MRSP mature biofilm) was “did not affect the biomass”. The Anti-inflammatory activity [4] was “potent anti-inflammatory activity”, the “Regulation of mecA gene expression” value (mecA gene expression) was “did not regulate mecA gene expression” and the “Aggregation state and conformation in aqueous solution” value ([5]; aqueous solution) was “monomeric with a random coil conformation”. For the same molecule, the “Aggregation in membrane mimetic environments” value ([5]; membrane mimetic environments) was “significant ability to aggregate”, the “Effect on biofilm formation” value (MSSP biofilm formation) was “ineffective” and the “Log10CFU/mL 0 h” value (MRSP; peptide at MIC value (6.25 μM), 37 °C, 0 h, three independent experiments in triplicate) was 5.30 ± 0.18 Log10CFU/mL. The “Log10CFU/mL 1 h” value (MRSP; peptide at MIC value (6.25 μM), 1 h) was 2.47 ± 0.18 Log10CFU/mL, the “Log10CFU/mL 2 h” value (MRSP; peptide at MIC value (6.25 μM), 2 h) was 2.38 ± 0.19 Log10CFU/mL and the “Log10CFU/mL 4 h” value (MRSP; peptide at MIC value (6.25 μM), 4 h) was 1.30 ± 0.21 Log10CFU/mL. The “Log10CFU/mL 6 h” value (MRSP; peptide at MIC value (6.25 μM), 6 h) was 0.77 ± 0.12 Log10CFU/mL, the “Log10CFU/mL 24 h” value (MRSP; peptide at MIC value (6.25 μM), 24 h) was 4.86 ± 0.28 Log10CFU/mL and the “Bactericidal or bacteriostatic activity” value (MRSP; time-kill at MIC value) was “bacteriostatic”.
